Values belong to the compound of their own block, whether it stands above or below them.
How the values were obtained:
[1] = test system: c-Myc; test: WB of c-Myc protein levels in Mino cells; type: cell-based; conditions: 20 h
Protocol: (§1) Cells were incubated with DMSO at 0.1% or with compound in concentrations ranging 10–20,000 nM for 20 h unless indicated differently. Following incubation, lysis was performed in RIPA buffer and the samples were measured for total protein quantification by BCA assay (Thermo Fisher Scientific, 23225). Then, 20–40 μg of each sample was loaded and run on an SDS–PAGE gel, before transferring onto a nitrocellulose membrane using a Trans-Blot Turbo system (Bio-Rad) and blocking using a 5% BSA in TBS-T (w/v) solution for 1 h at room temperature. Incubation with primary antibodies (mouse anti-BCL-6 (sc-7388, Santa Cruz, 1:500; overnight at 4 °C), mouse anti-Keap1 (sc-365626, Santa Cruz, 1:500; overnight at 4 °C), rabbit anti-LDHA (4H18L6, Thermo Fisher, 1:1,000; overnight at 4 °C), mouse anti-NQO2 (sc-271665, Santa Cruz, 1:500; overnight at 4 °C), rabbit anti-c-Myc (5605, Cell Signaling, 1:1,000; overnight at 4 °C) and mouse anti-β-actin (3700, Cell Signaling, 1:1,000; 1 h at room temperature) was performed and then the membranes were washed and incubated with a horseradish-peroxidase-conjugated secondary antibody (mouse 7076/rabbit 7074, Cell Signaling) at room temperature for 1 h. Imaging of the chemiluminescence signal was performed using a ChemiDoc XRS+ instrument (Bio-Rad). Primary band quantifications were normalized against β-actin bands.

[2] = test system: Mino cells; test: Viability measurements, Mino cells; type: cell-based; conditions: Mino cells, 72 h
Protocol: (§2) Cells were seeded in a transparent-bottom, black 96-well plate, at 15,000 cells per well in sixfold replications. in 90 µl of medium and left to adhere for at least 4 h. The cells were then treated with the respective compound by adding 10 µl of medium–-compound mixture for a final volume of 100 µl in each well. Cell-Titer blue reagent was used to measure viability according to the manufacturer’s instructions. Plate reader measurements were performed on a Tecan Spark Control 10 M fluorescence system.

[3] = test system: HEK 293 cells; test: Viability measurements, HEK 293 cells; type: cell-based; conditions: HEK 293 cells (lack BCL6 expression), 72 h
Protocol: as §2

[4] = biological target: T1, BCL6 (Homo sapiens, UniProt P41182); test: WB of BCL6 levels in Mino cells (soluble/insoluble fraction); type: cell-based; conditions: 20 h incubation
T1 construct: in Mino cells, as BCL6 is mostly expressed in B cells; endogenous in cells; host or cells: Mino (ATCC CRL-3000)
Protocol: Cells were incubated with DMSO at 0.1% or with compound in concentrations ranging 10–20,000 nM for 20 h unless indicated differently. […] Then, 20–40 μg of each sample was loaded and run on an SDS–PAGE gel, before transferring onto a nitrocellulose membrane using a Trans-Blot Turbo system (Bio-Rad) and blocking using a 5% BSA in TBS-T (w/v) solution for 1 h at room temperature. […] Imaging of the chemiluminescence signal was performed using a ChemiDoc XRS+ instrument (Bio-Rad). Primary band quantifications were normalized against β-actin bands.

[5] = test system: Ramos cells; test: Viability measurements, Ramos cells; type: cell-based; conditions: Ramos cells, 72 h
Protocol: as §2

[6] = biological target: T2, recombinant Keap1 BTB (Homo sapiens, UniProt Q14145, S172A); test: DLS of recombinant Keap1 BTB domain; type: biochemical; conditions: 50 μM Keap1 BTB, 50 μM compound, room temperature, over time
T2 construct: The Keap1 BTB domain (48–180) encoding the single substitution S172A was cloned into pET28-bdSumo vector; His–bdSumo (N, cleaved yes); made in house; host or cells: E. coli BL21(DE3)
Protocol: (§3) DLS samples were prepared in the respective protein’s elution buffer, to which 0.01% Tween was added, along with the compound from a DMSO stock to obtain a final DMSO concentration of 2%. Samples were prepared at room temperature and measured at a constant temperature of 25 °C. All samples were passed through 0.1-μm filters and then placed in a clear-bottom black 384-well plate. DLS data were recorded using a DynaproPlate Reader III (Wyatt Technology). Data were processed with the supplied DYNAMICS software.

[7] = biological target: Keap1 (Homo sapiens, UniProt Q14145); test: WB of Keap1 in OCI-AML2 cells (soluble/insoluble phase); type: cell-based; parameters: endogenous in cells; host or cells: OCI-AML2; conditions: OCI-AML2 cells, 20 h treatment; for EC50: read-out: EC50 (Keap1 downregulation, WB)
Protocol: as §1

[8] = biological target: T3, recombinant NQO2 (Homo sapiens, UniProt P16083); test: DLS of recombinant NQO2; type: biochemical; conditions: recombinant NQO2, room temperature, over time
T3 construct: made in house; host or cells: E. coli BL21(DE3)
T3 sequence (P16083 1-231): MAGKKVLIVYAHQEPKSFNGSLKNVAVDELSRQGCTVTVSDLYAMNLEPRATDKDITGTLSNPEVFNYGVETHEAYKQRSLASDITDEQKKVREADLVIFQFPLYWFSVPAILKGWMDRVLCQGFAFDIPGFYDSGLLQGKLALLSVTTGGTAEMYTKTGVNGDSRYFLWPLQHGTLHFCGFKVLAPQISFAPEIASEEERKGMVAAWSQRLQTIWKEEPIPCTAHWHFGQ
Protocol: as §3

[9] = biological target: Keap1 and BCL6 (Homo sapiens, UniProt P41182+Q14145); test: WB of Keap1 and BCL6 in Mino cells (hetero-PINCH); type: cell-based; parameters: Mino cells that express high levels of BCL6; endogenous in cells; host or cells: Mino; OCI-AML2; conditions: 20 h
Protocol: as §1

[10] = test system: U2OS cells; test: Viability measurements, U2OS cells; type: cell-based; conditions: 72 h
Protocol: as §2

[11] = test system: NQO1 expression; test: qPCR for NQO1 expression in OCI-AML2 cells after washout; type: cell-based; conditions: OCI-AML2, 250 nM 20 h, from 48 h after treatment
Protocol: Cells were treated with either DMSO or compound at 250 nM, followed by washing out the treated medium after 20 h and reseeding in fresh medium. Cells were then collected at several time points post washout. Total RNA was extracted using RNeasy mini kit (Qiagen, 74104). […] PCR amplification was carried out in Step-One Plus thermocycler (Applied Biosystems). Relative quantification was performed using standard curves. GAPDH was used for normalization.

[12] = test system: OCI-AML2 cells; test: Viability measurements, OCI-AML2 cells; type: cell-based; conditions: OCI-AML2, 72 h
Protocol: as §2

[13] = test system: Nrf2; test: WB of Nrf2; type: cell-based; conditions: U2OS cells, 20 h compound treatment

Chain of Keap1 (Q14145 whole entry): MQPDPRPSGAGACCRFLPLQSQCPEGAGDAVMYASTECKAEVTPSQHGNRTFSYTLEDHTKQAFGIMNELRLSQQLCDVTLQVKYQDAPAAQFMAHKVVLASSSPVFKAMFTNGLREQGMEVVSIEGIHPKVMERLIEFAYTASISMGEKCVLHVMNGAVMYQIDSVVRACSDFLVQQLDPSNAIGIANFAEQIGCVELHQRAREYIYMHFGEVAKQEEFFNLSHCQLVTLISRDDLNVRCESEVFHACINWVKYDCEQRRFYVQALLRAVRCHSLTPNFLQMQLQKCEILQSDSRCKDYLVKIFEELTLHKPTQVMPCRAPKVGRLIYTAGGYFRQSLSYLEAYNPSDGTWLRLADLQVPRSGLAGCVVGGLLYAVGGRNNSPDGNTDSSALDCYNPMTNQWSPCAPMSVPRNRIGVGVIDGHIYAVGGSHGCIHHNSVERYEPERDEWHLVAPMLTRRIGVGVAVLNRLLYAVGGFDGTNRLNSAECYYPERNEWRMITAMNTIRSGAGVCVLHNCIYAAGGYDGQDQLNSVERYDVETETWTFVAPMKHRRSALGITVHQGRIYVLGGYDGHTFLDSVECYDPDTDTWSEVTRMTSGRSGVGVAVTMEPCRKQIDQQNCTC
T2 sequence (Q14145 48-180 S172A): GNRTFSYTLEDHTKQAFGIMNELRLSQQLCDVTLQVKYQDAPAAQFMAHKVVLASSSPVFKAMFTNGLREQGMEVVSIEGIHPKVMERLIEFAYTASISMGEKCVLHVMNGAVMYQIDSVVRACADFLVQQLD

Compound: CNC(=O)COc1cc2cc(Nc3nc(N4C[C@H](C)C[C@H](C)C4)ncc3Cl)ccc2n(C)c1=O [BI-3802, reference compound]
c-Myc protein levels (WB) [1]: no such effect on c-Myc | effect on viability [2]: no viability effect | effect on viability [3]: no compound affected the viability | BCL6 in soluble and insoluble fraction (WB) [4]: no accumulation in the insoluble fraction | effect on viability [5]: no viability effect

Compound: CC1(C)CCC2(C(=O)NCCCCCCNC(=O)C34CCC(C)(C)CC3C3C(=O)C=C5C6(C)C=C(C#N)C(=O)C(C)(C)C6CCC5(C)C3(C)CC4)CCC3(C)C(C(=O)C=C4C5(C)C=C(C#N)C(=O)C(C)(C)C5CCC43C)C2C1 (stereo not shown) [EL132]
formation of large species (DLS) [6]: formation of large species over time | EC50 [7]: 1020 nM

Compound: CC1(C)CCC2(C(=O)NCCOCCNC(=O)C34CCC(C)(C)CC3C3C(=O)C=C5C6(C)C=C(C#N)C(=O)C(C)(C)C6CCC5(C)C3(C)CC4)CCC3(C)C(C(=O)C=C4C5(C)C=C(C#N)C(=O)C(C)(C)C5CCC43C)C2C1 (stereo not shown) [EL147]
Keap1 in soluble and insoluble fraction (WB activity) [7]: no activity

Compound: CC1(C)CCC2(C(=O)NCCOCCOCCOCCNC(=O)C34CCC(C)(C)CC3C3C(=O)C=C5C6(C)C=C(C#N)C(=O)C(C)(C)C6CCC5(C)C3(C)CC4)CCC3(C)C(C(=O)C=C4C5(C)C=C(C#N)C(=O)C(C)(C)C5CCC43C)C2C1 (stereo not shown) [EL151]
Keap1 in soluble and insoluble fraction (WB activity) [7]: no activity

Compound: CC1(C)CCC2(C(=O)NCCOCCOCCOCCOCCOCCOCCNC(=O)C34CCC(C)(C)CC3C3C(=O)C=C5C6(C)C=C(C#N)C(=O)C(C)(C)C6CCC5(C)C3(C)CC4)CCC3(C)C(C(=O)C=C4C5(C)C=C(C#N)C(=O)C(C)(C)C5CCC43C)C2C1 (stereo not shown) [EL152]
EC50 [7]: 904 nM

Compound: CC1(C)CCC2(C(=O)NCCOCCOCCOCCOCCOCCOCCOCCOCCOCCOCCOCCOCCOCCNC(=O)C34CCC(C)(C)CC3C3C(=O)C=C5C6(C)C=C(C#N)C(=O)C(C)(C)C6CCC5(C)C3(C)CC4)CCC3(C)C(C(=O)C=C4C5(C)C=C(C#N)C(=O)C(C)(C)C5CCC43C)C2C1 (stereo not shown) [EL229]
Keap1 in soluble and insoluble fraction (WB activity) [7]: reduced Keap1 in the cell’s soluble fraction and induced its accumulation in the insoluble fraction

Compound: Cc1ccc(-c2cn3cccc(C)c3n2)cc1S(=O)(=O)N1CCN(C(=O)COCC(=O)N2CCN(S(=O)(=O)c3cc(-c4cn5cccc(C)c5n4)ccc3C)CC2)CC1 [EL244]
formation of larger species (DLS) [8]: ability to form larger species in solution

Compound: Cc1ccc(-c2cn3cccc(C)c3n2)cc1S(=O)(=O)N1CCN(C(=O)COCCOCC(=O)N2CCN(S(=O)(=O)c3cc(-c4cn5cccc(C)c5n4)ccc3C)CC2)CC1 [EL245]
formation of larger species (DLS) [8]: ability to form larger species in solution

Compound: Cc1ccc(-c2cn3cccc(C)c3n2)cc1S(=O)(=O)N1CCN(C(=O)COCCOCCOCC(=O)N2CCN(S(=O)(=O)c3cc(-c4cn5cccc(C)c5n4)ccc3C)CC2)CC1 [EL246]
formation of larger species (DLS) [8]: ability to form larger species in solution

Compound: COc1cc(Nc2cc(NCc3cccc(S(=O)(=O)F)c3)ccc2Cl)cc2cc(OCC(=O)NCCOCCOCCOCCOCCOCCOCCOCCOCCOCCOCCOCCOCCOCCN)c(=O)n(C)c12 [compound 23]
Keap1 and BCL6 levels in soluble/insoluble phase (WB) [9]: did not induce such effects on either target

Compound: CC1(C)CC[C@]2(C(=O)NCCOCCOCCOCCOCCOCCOCCOCCOCCOCCOCCOCCOCCOCCN)CC[C@]3(C)[C@H](C(=O)C=C4[C@@]5(C)C=C(C#N)C(=O)C(C)(C)[C@@H]5CC[C@]43C)[C@@H]2C1 [compound 24]
Keap1 and BCL6 levels in soluble/insoluble phase (WB) [9]: did not induce such effects on either target

Compound: Bardoxolone [BDX, reference compound]
IC50 [10]: 723 nM | duration of NQO1 upregulation after washout [11]: returned closer to its original level | IC50 [12]: 1000 nM | formation of large species (DLS) [6]: did not appear | Nrf2 levels (WB) [13]: Nrf2 upregulation

More lines, now with the values ahead:

Keap1 in soluble and insoluble fraction (WB activity) [7]: no activity
Compound: CC1(C)CCC2(C(=O)NCC3CCC(CNC(=O)C45CCC(C)(C)CC4C4C(=O)C=C6C7(C)C=C(C#N)C(=O)C(C)(C)C7CCC6(C)C4(C)CC5)CC3)CCC3(C)C(C(=O)C=C4C5(C)C=C(C#N)C(=O)C(C)(C)C5CCC43C)C2C1 (stereo not shown) [EL159]

Keap1 in soluble and insoluble fraction (WB activity) [7]: no activity
Compound: CC1(C)CCC2(C(=O)NCCCCCCCCNC(=O)C34CCC(C)(C)CC3C3C(=O)C=C5C6(C)C=C(C#N)C(=O)C(C)(C)C6CCC5(C)C3(C)CC4)CCC3(C)C(C(=O)C=C4C5(C)C=C(C#N)C(=O)C(C)(C)C5CCC43C)C2C1 (stereo not shown) [EL163]

EC50 [7]: 434 nM
Compound: CC1(C)CCC2(C(=O)NCCSCCSCCNC(=O)C34CCC(C)(C)CC3C3C(=O)C=C5C6(C)C=C(C#N)C(=O)C(C)(C)C6CCC5(C)C3(C)CC4)CCC3(C)C(C(=O)C=C4C5(C)C=C(C#N)C(=O)C(C)(C)C5CCC43C)C2C1 (stereo not shown) [EL164]

formation of large species (DLS) [6]: formation of large species over time | EC50 [7]: 342 nM
Compound: CC1(C)CCC2(C(=O)NCCN3CCN(CCNC(=O)C45CCC(C)(C)CC4C4C(=O)C=C6C7(C)C=C(C#N)C(=O)C(C)(C)C7CCC6(C)C4(C)CC5)CC3)CCC3(C)C(C(=O)C=C4C5(C)C=C(C#N)C(=O)C(C)(C)C5CCC43C)C2C1 (stereo not shown) [EL165]

Keap1 in soluble and insoluble fraction (WB activity) [7]: no activity
Compound: CC1(C)CCC2(C(=O)NCC(=O)N3CCN(C(=O)CNC(=O)C45CCC(C)(C)CC4C4C(=O)C=C6C7(C)C=C(C#N)C(=O)C(C)(C)C7CCC6(C)C4(C)CC5)CC3)CCC3(C)C(C(=O)C=C4C5(C)C=C(C#N)C(=O)C(C)(C)C5CCC43C)C2C1 (stereo not shown) [EL174]

formation of larger species (DLS) [8]: little to no effect in polymerizing NQO2
Compound: Cc1ccc(-c2cn3cccc(C)c3n2)cc1S(=O)(=O)N1CCN(C(=O)CCOCCOCCOCCOCCOCCOCCOCCOCCOCCOCCC(=O)N2CCN(S(=O)(=O)c3cc(-c4cn5cccc(C)c5n4)ccc3C)CC2)CC1 [EL241]
